Test results from publication PMC10244169, “Psychedelics promote plasticity by directly binding to BDNF receptor TrkB” (Nature Neuroscience, 2023).

Experiments:
mouse TrkB = target: T1, mouse TrkB (Mus musculus, UniProt P15209); experiment: ^3H-LSD saturation binding to immunoprecipitated TrkB
T1 construct: from tissue; host or cells: mouse embryo (E18) brain
Protocol: Binding assays were performed as previously described with minor modifications. […] Samples from mouse embryo (E18) brains were also lysed, vortexed, sonicated and centrifuged for binding assays. Plates were then washed with PBS. […] For the competition binding assays with biotinylated R,R-HNK, the amino-biotinylation of R,R-HNK was performed using a commercial kit (Thermo Scientific, EZ-Link NHS-PEG4 Biotinylation Kit, 21455) and the reaction monitored by MS. A mixture of biotinylated R,R-HNK (10 µM) and unlabeled compounds (1 pM to 10 µM) in PBS was added to the 96-well plates containing the immunoprecipitated TrkB and incubated for 1 h at room temperature. […] Luminescence was determined via streptavidin conjugated with horseradish peroxidase (HRP; Thermo Fisher Scientific, 21126; 1:5,000, 1 h at room temperature) in reaction with the Pierce ECL substrate (Thermo Fisher Scientific, 32106). Luminescence from blank wells that contained all reagents but the sample lysates was used to determine nonspecific binding. To obtain the binding curves, results from binding assays were fitted to the equation of specific binding with Hill slope from GraphPad Prism 9.2. To calculate koff values, results were fitted to the equation of dissociation of one phase exponential decay from GraphPad Prism 9.2.

primary visual cortex = experiment: Ocular dominance plasticity after monocular deprivation; format: in vivo, mouse; conditions: ext fig 7b
Protocol: Female and male mice were 17 weeks old at the time of monocular deprivation, since the physiological critical period in the binocular region of the visual cortex is closed by then[85]. […] Briefly, mice were injected with an anesthetic mixture containing 0.05 mg kg^−1 fentanyl (Hameln), 5 mg kg^−1 midazolam (Hameln) and 0.5 mg kg^−1 medetomidine (Orion Pharma) diluted in saline. Eyes were protected from drying with eye-protective gel (Alcon), and the head was shaved and fixed in a stereotaxic frame with a heating pad maintained at 37 °C. A mixture of lidocaine and adrenaline (Orion Pharma) was applied locally on the head, and the scalp above the visual cortex was cut. The periosteum was removed gently, and the skull was rapidly cleaned from fat with acetone. The surface of the skull was covered with a thin layer of cyanoacrylate glue (Henkel, Loctite 401), followed by two layers of acryl, obtained by mixing colorless acrylic powder (EUBECOS) with liquid methacrylate (Densply). […] The signal was recorded from one eye at a time, with the other eye covered by a patch. […] The OD score as (C − I)/(C + I) was calculated, and the ocular dominance index (ODI) was determined as the mean of the OD score for all responsive pixels, as described by Cang et al.[89].
TrkB:PLCγ1 = target: T2, TrkB:PLCγ1 (Rattus norvegicus, UniProt Q63604); experiment: ELISA of TrkB:PLCγ1 interaction in neuronal cultures; format: cell-based
T2 construct: endogenous in cells; host or cells: rat cortical neuronal cultures (E18, DIV21)
Protocol: The phosphorylation of TrkB (pY816) and interaction with PLCγ1 were assessed by enzyme-linked immunosorbent assay (ELISA) as previously described[11],[80],[81] with minor modifications. Briefly, white 96-well plates (PerkinElmer, OptiPlate 96F-HB) were precoated with goat anti-TrkB (R&D systems, AF1494; 1:500, overnight, 4 °C) antibody in carbonate buffer (pH 9.8) and blocked with 3% BSA in PBS with 0.1% Tween-20 (PBS-T) for 2 h at room temperature. […] Samples were incubated overnight at 4 °C, and 24 h later plates were washed with PBS-T and incubated with either rabbit anti-phospho-TrkB(Tyr816) (Cell Signaling Technology, 4168S; 1:2,000), rabbit anti-PLCγ1 (Cell Signaling Technologies, 5690S; 1:2,000) or rabbit anti-Trk (Cell Signaling Technologies, 92991; 1:2,000) antibodies overnight at 4 °C. After washing with PBS-T, plates were incubated with HRP-conjugated goat anti-rabbit (Bio-Rad, 170–5046; 1:5,000, 1 h, room temperature) antibody, followed by more washing with PBS-T. Finally, the chemiluminescent signal was read after brief incubation with Pierce ECL substrate (Thermo Fisher Scientific, 32106). Luminescence from blank wells that contained all reagents but the sample lysates was used to determine background signal.

[1] = tested on: dentate granule cells (DGCs); experiment: Long-term survival of newborn dentate granule cells (BrdU); format: in vivo, mouse; conditions: for Mean, figure 7b (survival of newborn dentate granule cells): LSD group; for e6h group mean: LSD
Protocol: WT and Y433F^+/− male mice were administered four doses of 5-bromo-2′-deoxyuridine (BrdU, 75 mg kg^−1 per injection, every 2 h) intraperitoneally to tag newborn neurons in the hippocampus and returned to their home cage. […] Four weeks later, animals were intracardially perfused with PBS followed by 4% PFA. Brains were dissected and postfixed with 4% PFA (overnight, 4 °C). Next, brains were transferred to 30% sucrose (0.1% PBS) solution and stored at 4 °C for 48–72 h. Brains were moved into disposable vinyl specimen molds (Sakura, Tissue-Tek Cryomold standard) and covered in Tissue-Tek O.C.T. Compound (Sakura). Trays were placed on dry ice and brains covered once more in TissueTec to ensure full coverage. Once frozen, samples were stored at −80 °C. Brains were sliced coronally at 40 µm thickness, collecting every sixth slice. Slices were stored in cryoprotectant fluid (30% sucrose, 30% ethylene glycol, 1% PVP-40, and 0.05 M PB) in −20 °C until staining. Every third hippocampal slice containing dentate gyrus (DG) was collected for washing with 0.1 M PBS and staining. BrdU immunofluorescence was conducted similarly as previously reported in the literature[28] with modifications. Hippocampal slices were incubated in 2.0 M HCl (30 min, 37 °C) and washed with PBS. Slices were then incubated in 0.1 M borate buffer (pH 8.0) at room temperature for 10 min, followed by further washes in PBS and 1 h incubation in 0.1% PBS blocking buffer (0.5% Triton X-100, 5% normal donkey serum, 5% normal goat serum, 1% BSA and 0.1% gelatin). Sections were incubated with primary antibodies rat anti-BrdU (Abcam, ab6326; 1:200) and mouse anti-NeuN (Millipore, MAB377; 1:1,000) for 48 h at 4 °C with gentle shaking. Slices were then washed with PBS, followed by incubation with secondary antibodies Alexa Fluor 488 donkey anti-rat (Invitrogen, A21208; 1:300) and Alexa Fluor 568 goat-anti-mouse (Invitrogen, A11004; 1:500) for 2 h at room temperature and protected from light. Slices were washed in PBS and PB before mounting with Dako fluorescence mounting medium (Agilent, S302380-2) and slides stored at 4 °C until imaging. A total of eight slices containing both hemispheres and covering the whole DG (every third slice) were imaged with a Zeiss LSM 710 confocal microscope. Fifteen optical sections with a Z-step of 2 µm were acquired per slice with a PlanApochromat 10×/0.45 M27. BrdU^+ and BrdU^+/NeuN^+ cells in the DG were counted manually by experimenters blinded to treatment and genotype using ZEN Blue 3.2. Similarly to Ma et al.[28], we estimated the number of mature neurons (BrdU^+/NeuN^+) in the DG of both hemispheres by multiplying by 6 the total count derived from every third hippocampal slice. The percentage of mature neurons over total BrdU^+ cells in the DG was also calculated.

T1 sequence (P15209 32-821): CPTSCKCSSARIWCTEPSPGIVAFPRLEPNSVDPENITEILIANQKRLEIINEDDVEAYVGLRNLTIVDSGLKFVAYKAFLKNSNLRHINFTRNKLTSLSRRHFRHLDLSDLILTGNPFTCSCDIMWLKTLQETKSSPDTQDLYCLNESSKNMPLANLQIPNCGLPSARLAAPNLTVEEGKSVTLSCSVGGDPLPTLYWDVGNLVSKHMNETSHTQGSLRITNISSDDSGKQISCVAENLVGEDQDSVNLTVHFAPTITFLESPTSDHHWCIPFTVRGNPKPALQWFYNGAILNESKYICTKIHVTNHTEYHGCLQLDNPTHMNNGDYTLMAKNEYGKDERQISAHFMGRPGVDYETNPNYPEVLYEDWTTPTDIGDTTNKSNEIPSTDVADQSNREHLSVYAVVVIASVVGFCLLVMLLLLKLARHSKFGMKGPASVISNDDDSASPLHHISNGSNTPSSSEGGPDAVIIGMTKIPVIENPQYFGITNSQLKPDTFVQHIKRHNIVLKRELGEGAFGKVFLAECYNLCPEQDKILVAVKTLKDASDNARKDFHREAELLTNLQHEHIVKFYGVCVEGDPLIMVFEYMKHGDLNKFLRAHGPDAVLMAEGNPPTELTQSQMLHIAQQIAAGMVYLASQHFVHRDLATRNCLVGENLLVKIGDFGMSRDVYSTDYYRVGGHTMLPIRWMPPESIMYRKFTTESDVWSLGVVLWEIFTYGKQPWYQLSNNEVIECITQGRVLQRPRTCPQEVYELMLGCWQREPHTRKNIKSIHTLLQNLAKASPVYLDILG
T2 sequence (Q63604 32-821): as the sequence (P15209 32-821) above, with T3M, S9T, A10T, V32I, R63K, S84G, M153T, L185I, S394T, S770N counted along it

CCN(CC)C(=O)C1C=C2c3cccc4[nH]cc(c34)CC2N(C)C1 (stereo not shown) [LSD, lysergic acid diethylamide]
Kd (mouse TrkB): 0.425 ± 0.296 nM
Bmax (mouse TrkB; ^3H-LSD saturation, mouse TrkB): 7.388 ± 0.771 pmol mg^−1 protein
Bmax (specific binding with Hill slope, best-fit) (mouse TrkB; ext fig 1b, TRKB.wt, n=2): 117.1
h (Hill slope, best-fit) (mouse TrkB; ext fig 1b, TRKB.wt, n=2): 0.5552
Mean ± SEM of column B (IOS II) (primary visual cortex; IOS II (second imaging session), n=10 mice): 0.0300 ± 0.02329, n=10
Difference between means (IOS II vs. IOS I) (primary visual cortex; column B IOS II vs. column A IOS I, unpaired t test): -0.1640 ± 0.02794
TrkB interaction with PLCγ1 (TrkB:PLCγ1): increases TrkB interaction with phospholipase C gamma 1 (PLCγ1)
number of surviving DGCs ([1]; WT mice, 4 weeks after single administration (0.1 mg kg^−1 i.p.)): doubles the number of surviving DGCs
Mean, figure 7b (survival of newborn dentate granule cells) ([1]; WT mice): 315.4
e6h group mean ([1]; WT mice, n=7): 94.67
Mean Diff., figure 7b, WT:Saline vs. WT:LSD ([1]; WT mice, saline minus LSD, Bonferroni's multiple comparisons test): -197.8
e6h Mean Diff. (Saline minus LSD) ([1]; WT:Saline vs. WT:LSD, Bonferroni's multiple comparisons test): -4.385
Mean, figure 7b (survival of newborn dentate granule cells) ([1]; Y433F+/- mice): 150
e6h group mean ([1]; Y433F+/- mice, n=8): 94.59
Mean Diff., figure 7b, Y433F+/-:Saline vs. Y433F+/-:LSD ([1]; Y433F+/- mice, saline minus LSD, Bonferroni's multiple comparisons test): 9.6
e6h Mean Diff. (Saline minus LSD) ([1]; Y433F+/-:Saline vs. Y433F+/-:LSD, Bonferroni's multiple comparisons test): 3.141
e6h Predicted (LS) mean of LSD ([1]; column mean across WT and Y433F+/- mice): 94.63
Predicted (LS) mean of LSD, figure 7b ([1]; mean over WT and Y433F+/- mice): 232.7
Difference between predicted means (Saline - LSD), figure 7b ([1]; means over WT and Y433F+/- mice): -94.11
